In US9573954B2, “Pyrazolopyrimidine compounds” (University Health Network, priority 2012, dated 2017):
Read-outs that look alike come from different tables or passages of the source.

Legend:
[1] = target: T1, human TTK (Homo sapiens, UniProt P33981); assay: TTK inhibition assay (indirect ELISA); type: biochemical; conditions: 100 μM ATP; read-out: TTK IC50 Range
T1 construct: Active TTK was purchased from Invitrogen as an amino terminal GST fusion of full length human TTK; purchased Invitrogen
T1 sequence (P33981 1-857): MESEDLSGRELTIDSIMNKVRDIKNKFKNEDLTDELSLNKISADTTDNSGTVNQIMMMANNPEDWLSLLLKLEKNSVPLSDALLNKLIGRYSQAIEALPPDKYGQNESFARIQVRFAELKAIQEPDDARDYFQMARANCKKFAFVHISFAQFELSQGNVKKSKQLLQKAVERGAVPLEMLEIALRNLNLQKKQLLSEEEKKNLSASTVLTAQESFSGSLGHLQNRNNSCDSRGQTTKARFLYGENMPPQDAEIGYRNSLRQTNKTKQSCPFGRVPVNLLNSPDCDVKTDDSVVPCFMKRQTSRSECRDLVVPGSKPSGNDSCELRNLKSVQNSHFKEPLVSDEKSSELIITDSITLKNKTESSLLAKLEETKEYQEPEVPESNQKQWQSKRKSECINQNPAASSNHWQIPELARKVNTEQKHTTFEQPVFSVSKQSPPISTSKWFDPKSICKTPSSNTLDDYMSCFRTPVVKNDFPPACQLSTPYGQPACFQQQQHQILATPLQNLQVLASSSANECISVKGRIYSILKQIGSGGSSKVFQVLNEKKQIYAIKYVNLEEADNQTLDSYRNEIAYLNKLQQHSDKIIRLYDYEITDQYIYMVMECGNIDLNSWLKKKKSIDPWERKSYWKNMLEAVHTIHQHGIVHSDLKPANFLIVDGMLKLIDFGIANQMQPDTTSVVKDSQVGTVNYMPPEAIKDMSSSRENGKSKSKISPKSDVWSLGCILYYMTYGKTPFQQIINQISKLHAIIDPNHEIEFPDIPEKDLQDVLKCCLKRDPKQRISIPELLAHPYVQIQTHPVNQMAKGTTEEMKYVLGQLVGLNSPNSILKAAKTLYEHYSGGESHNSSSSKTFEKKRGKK
In short: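 Activity detected by indirect ELISA after compounds sat with full-length GST-TTK for 5 min prior to starting the reaction with ATP. IC50 came from a four-parameter logistic curve of % inhibition, calculated against background and uninhibited control wells.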

[2] = test system: colon cancer cells (HCT116); assay: Cancer cell line growth inhibition, Sulforhodamine B assay, HCT116; type: cell-based; conditions: read-out: Cancer Cell Line GI50 Range HCT116
Procedure: (§1) Breast cancer cells (MDA-MB-231 and MDA-MB-468), colon cancer cells (HCT116) and ovarian cancer cells (PA-1 and OVCAR-3) were seeded (1000 to 4000 in 80 μl per well depending on the cell growth rate) into 96 well plates 24 hours before compound overlay. Compounds were prepared as 10 mM stock solutions in 100% DMSO which were diluted with DMEM (Dulbecco's Modified Eagle's Medium) cell growth Medium (Invitrogen, Burlington, ON, Canada) containing 10% FBS (Fetal Bovine Serum) to concentrations ranging from 50 nM to 250 μM. Aliquots (20 μl) from each concentration were overlaid to 80 μl of the pre-seeded cells in the 96 well plates to make final concentrations of 10 nM to 50 μM. The cells were cultured for 5 days before the Sulforhodamine B assay (SRB) was performed to determine the compound's cell growth inhibition activity.
(§2) Sulforhodamine B (purchased from Sigma, Oakville, ON, Canada) is a water-soluble dye that binds to the basic amino acids of the cellular proteins. Thus, colorimetric measurement of the bound dye provides an estimate of the total protein mass that is related to the cell number. the cells are fixed in situ by gently aspirating off the culture media and adding 50 μl ice cold 10% Trichloroacetic Acid (TCA) per well and incubate at 4° C. for 30-60 min, The plates are washed with H2O five times and allowed to air dry for 5 min. Addition of 50 μl 0.4% (w/v) SRB solution in 1% (v/v) acetic acid to each well and incubation for 30 min at RT completes the staining reaction. Following staining, plates are washed four times with 1% acetic acid to remove unbound dye and then allowed to air dry for 5 min. The stain is solubilized with 100 μl of 10 mM Tris pH 10.5 per well. Absorbance is read at 570 nm.
(§3) The percentage (%) of relative growth inhibition was calculated by comparing to DMSO treated only cells (100%). GI50's were determined for compounds with cytotoxic activity. The GI50 was calculated using GraphPad PRISM software (GraphPad Software, Inc., San Diego, Calif., USA).
(§4) In Table 1 below, GI50 value ranges for compound examples against breast cancer cell lines (MDA-MB-468), colon cancer cell lines (HCT116) and ovarian cancer cell lines (PA-1) are given.
In Table 2 below, GI50 value ranges for compound examples against breast cancer cell lines (MDA-MB-231), colon cancer cell lines (HCT116) and ovarian cancer cell lines (PA-1) are given.
(§5) In Table 3 below, GI50 value ranges for compound examples against breast cancer cell lines (MDA-MB-468), colon cancer cell lines (HCT116) and ovarian cancer cell lines (OVCAR-3) are given.

[3] = test system: breast cancer cells (MDA-MB-468); assay: Cancer cell line growth inhibition, Sulforhodamine B assay, MDA-MB-468; type: cell-based; conditions: read-out: Cancer Cell Line GI50 Range MDA-MB-468
Procedure: as §1, §2, §3, §4, §5

[4] = test system: ovarian cancer cells (OVCAR-3); assay: Cancer cell line growth inhibition, Sulforhodamine B assay, OVCAR-3; type: cell-based; conditions: read-out: Cancer Cell Line GI50 Range OVCAR-3
Procedure: as §1, §2, §3, §5

[5] = Homo sapiens, HCT-116, HCT116 colon cancer cell line
[6] = Homo sapiens, MDA-MB-468, MDA-MB-468 breast cancer cell line
[7] = Homo sapiens, OVCAR-3, OVCAR-3 ovarian cancer cell line

Row | Structure (SMILES) | IC50 [1] [nM] | GI50 [2, 5] [nM] | GI50 [3, 6] [nM] | GI50 [4, 7] [nM] | GI50 ([2]; HCT116 colon cancer cell line) [nM] | GI50 ([3]; MDA-MB-468 breast cancer cell line) [nM] | GI50 ([4]; OVCAR-3 ovarian cancer cell line) [nM]
1 | Cc1cc(-c2cnn3c(NCC4CCOCC4)cc(N[C@H](CO)C4CCOCC4)nc23)ccc1C(=O)NC1CC1 [Example C89] | < 100 | 100 to 500 | > 500 | > 500 |  |  | 
2 | CCO[C@H]1COC[C@@H]1Nc1cc(NCC2CCOCC2)n2ncc(-c3ccc(C(=O)NC4CC4)c(C)c3)c2n1 [Example C90] | < 100 | 100 to 500 | 100 to 500 | > 500 |  |  | 
3 | Cc1cc(-c2cnn3c(NCC4(CO)CCOCC4)cc(NC4CCCC4)nc23)ccc1C(=O)NC1CC1 [Example C92] | < 100 | 100 to 500 | > 500 | > 500 |  |  | 
4 | Cc1cc(-c2cnn3c(NCC4(O)CCOCC4)cc(NC4CCOCC4)nc23)ccc1C(=O)NC1CC1 [Example C94] | < 100 | > 500 | > 500 | > 500 |  |  | 
5 | Cc1cc(-c2cnn3c(NCC4(O)CCOCC4)cc(NC4CCCC4)nc23)ccc1C(=O)NC1CC1 [Example C95] | < 100 | 100 to 500 | > 500 | > 500 |  |  | 
6 | Cc1cc(-c2cnn3c(NCCN4CCOCC4)cc(Oc4cccc(N(C)C)c4)nc23)ccc1C(=O)NC1CC1 [Example C96] | < 100 | > 500 | > 500 | > 500 |  |  | 
7 | Cc1cc(-c2cnn3c(NCCN4CCOCC4)cc(Oc4cccc(Cl)c4)nc23)ccc1C(=O)NC1CC1 [Example C97] | < 100 | ≤ 100 | 100 to 500 | 100 to 500 |  |  | 
8 | Cc1cc(-c2cnn3c(NCC4(O)CCOCC4)cc(Oc4cccnc4)nc23)ccc1C(=O)NC1CC1 [Example C98] | < 100 | 100 to 500 | > 500 | > 500 |  |  | 
9 | Cc1cc(-c2cnn3c(NCC4(CO)CCOCC4)cc(Oc4cccnc4)nc23)ccc1C(=O)NC1CC1 [Example C99] | < 100 | 100 to 500 | > 500 | > 500 |  |  | 
10 | Cc1cc(-c2cnn3c(NCC4CCOCC4)cc(NCC4CC4)nc23)ccc1C(=O)NC1CC1 [Example C103] | < 100 | ≤ 100 | 100 to 500 | 100 to 500 |  |  | 
11 | COC[C@@H](Nc1cc(NCC2CCOCC2)n2ncc(-c3ccc(C(=O)NC4CC4)c(C)c3)c2n1)C(C)C [Example C104] | < 100 | ≤ 100 | 100 to 500 | 100 to 500 |  |  | 
12 | O=C(NC1CC1)c1ccc(-c2cnn3c(NCCN4CCOCC4)cc(Oc4ccccc4)nc23)cc1Cl [Example C105] | < 100 | ≤ 100 | ≤ 100 | ≤ 100 |  |  | 
13 | Cc1cc(-c2cnn3c(NCC4CCOCC4)cc(N[C@H]4COC[C@H]4O)nc23)ccc1C(=O)NC1CC1 [Example C107] | < 100 | 100 to 500 | 100 to 500 | > 500 |  |  | 
14 | COCCNc1cc(N[C@H]2CCCC[C@H]2O)nc2c(-c3ccc(C(=O)NC4CC4)c(C)c3)cnn12 [Example C108] | < 100 | ≤ 100 | 100 to 500 | ≤ 100 |  |  | 

Results, then the molecule that gave them:

Row | IC50 [1] [nM] | GI50 [2, 5] [nM] | GI50 [3, 6] [nM] | GI50 [4, 7] [nM] | GI50 ([2]; HCT116 colon cancer cell line) [nM] | GI50 ([3]; MDA-MB-468 breast cancer cell line) [nM] | GI50 ([4]; OVCAR-3 ovarian cancer cell line) [nM] | Structure (SMILES)
15 | < 100 | ≤ 100 | 100 to 500 | 100 to 500 |  |  |  | Cc1cc(-c2cnn3c(NCC4CCOCC4)cc(NC4CCC4)nc23)ccc1C(=O)NC1CC1 [Example C109]
16 | < 100 | 100 to 500 | 100 to 500 | 100 to 500 |  |  |  | Cc1cc(-c2cnn3c(NCC4CCOCC4)cc(N[C@H](C(N)=O)C(C)C)nc23)ccc1C(=O)NC1CC1 [Example C111]
17 | < 100 | 100 to 500 | 100 to 500 | 100 to 500 |  |  |  | Cc1cc(-c2cnn3c(NCC4CCOCC4)cc(NCC4(CO)CC4)nc23)ccc1C(=O)NC1CC1 [Example C113]
18 | < 100 | > 500 | > 500 | > 500 |  |  |  | Cc1cc(-c2cnn3c(NCC4CCOCC4)cc(NCCN4CCOCC4)nc23)ccc1C(=O)NC1CC1 [Example C114]
19 | < 100 | 100 to 500 | 100 to 500 | > 500 |  |  |  | Cc1cc(-c2cnn3c(NCC4CCOCC4)cc(N[C@@H](CO)C(C)C)nc23)ccc1C(=O)NC1CC1 [Example C121]
20 | < 100 | ≤ 100 | ≤ 100 | 100 to 500 |  |  |  | Cc1cc(-c2cnn3c(NCC4CCOCC4)cc(N[C@H]4CCC[C@@H]4O)nc23)ccc1C(=O)NC1CC1 [Example C123]
21 | < 100 | 100 to 500 | 100 to 500 | 100 to 500 |  |  |  | Cc1cc(-c2cnn3c(NCC4CCOCC4)cc(N[C@@H]4CCCC[C@H]4O)nc23)ccc1C(=O)NC1CC1 [Example C124]
22 | < 100 | ≤ 100 | ≤ 100 | 100 to 500 |  |  |  | Cc1cc(-c2cnn3c(NCC4CCOCC4)cc(N[C@H]4CCCC[C@@H]4O)nc23)ccc1C(=O)NC1CC1 [Example C125]
23 | < 100 |  |  |  | ≤ 100 | ≤ 100 | ≤ 100 | Cc1cc(-c2cnn3c(NCC4CCOCC4)cc(N[C@H]4CCC[C@@H]4O)nc23)ccc1C(=O)NC1CC1 [Example C126]
24 | < 100 | ≤ 100 | 100 to 500 | 100 to 500 |  |  |  | CC[C@H](Nc1cc(NCC2CCOCC2)n2ncc(-c3ccc(C(=O)NC4CC4)c(C)c3)c2n1)C(C)(C)O [Example C127]
25 | < 100 | 100 to 500 | 100 to 500 | > 500 |  |  |  | Cc1cc(-c2cnn3c(NCC4CCOCC4)cc(N[C@H]4CCCC[C@H]4CO)nc23)ccc1C(=O)NC1CC1 [Example C131]
26 | < 100 | > 500 | 100 to 500 | > 500 |  |  |  | Cc1cc(-c2cnn3c(NCCCn4ccnc4)cc(N[C@H]4CCCC[C@H]4O)nc23)ccc1C(=O)NC1CC1 [Example C132]
27 | < 100 | 100 to 500 | 100 to 500 | 100 to 500 |  |  |  | CC[C@H](Nc1cc(NC[C@H]2CCOC2)n2ncc(-c3ccc(C(=O)NC4CC4)c(C)c3)c2n1)[C@H](C)O [Example C133]
28 | < 100 | 100 to 500 | 100 to 500 | 100 to 500 |  |  |  | CC[C@H](Nc1cc(NC[C@@H]2CCOC2)n2ncc(-c3ccc(C(=O)NC4CC4)c(C)c3)c2n1)[C@H](C)O [Example C134]
29 | < 100 | ≤ 100 | ≤ 100 | 100 to 500 |  |  |  | Cc1cc(-c2cnn3c(NCC4CCOCC4)cc(N[C@@H]4CCOC4)nc23)ccc1C(=O)NC1CC1 [Example C136]
